The text below walks through data of PMC4520450, “Procyanidins Negatively Affect the Activity of the Phosphatases of Regenerating Liver” (PLoS ONE, 2015).

Each structure is given as a SMILES string.

One series relates to Caco-2 cell model. The arrangement: method as in PMID 23885956. The note with it: within 24h; cited from earlier work.
The nature of series [1]: Cytotoxicity by flow cytometry with propidium iodide. Format: cell-based. The following applies: human. An excerpt: To study the effects of procyanidins on PRL-1 and PRL-3 in cells, the trimeric catechin (procyanidin C2, 9) was chosen as a representative example due to its strong inhibitor activity in vitro toward both PRL-s and its smaller size compared to the higher oligomers, which could influence cell permeability. HEK293 cells stably overexpressing PRL-1 and PRL-3 were chosen as model cell line. As a control cell line, HEK293 cells transfected with the empty vector were utilized (see the Experimental Procedures). To avoid false positive results due to cell death, first cell viability was studied in a concentration dependent manner by using flow cytometry. Therefore, cells were treated with different concentrations of compound 9 for 24 h, harvested, and then the ratio of living to dead cells was determined using propidium iodide (Fig 5).
Fig 5 Cytotoxicity of procyanidin C2 (9) in HEK293 cells. Cells were treated with 50, 150 or 300 μM of 9 in the growth medium for 24 h. Cells were harvested, resuspended in PBS buffer and incubated with propidium iodide (1 mg/mL) for 5 min on ice. 10,000 events were set for the number of living cells. The number of living cells was divided by the number of total cells counted and given as percentage of cell survival. Data represent means ± standard errors of the mean (n = 3).
Fig 7 A) Cytotoxicity of procyanidin B3 (8) in HEK293 cells. Cells were treated with 50, 75 or 100 μM of 8 in the growth medium for 24 h. Cells were harvested, resuspended in PBS buffer and incubated with propidium iodide (1 mg/mL) for 5 min on ice. 10,000 events were set for the number of living cells. The number of living cells was divided by the number of total cells counted and given as percentage of cell survival. Data represent means ± standard errors of the mean (n = 3). B) Wound healing abilities of PRL-1 or PRL-3 overexpressing or empty vector control HEK293 cell lines were analyzed in the presence of compound 8 or medium only. Cells were seeded at a concentration of 800,000 cells per insert and procyanidin B3 (8) was added at a concentration of 50 and 75 μM. Speed of migration is shown for combined data from different replicates, as mean ± SD (n = 40–77). Two-sided t-tests with Welsh correction were performed for p < 0.05. ns = not significant;***: < 0.001; **: < 0.01; *: < 0.05.
Flow cytometry was used to determine the ratio of living to dead cells compared to the control. HEK293 empty vector and PRL-3 overexpressing cells were seeded in a transparent 6-well plate with 400,000 cells/well in DMEM medium without Phenol red, supplemented with 10% FBS, 1% glutamine and 0.2% hygromycin and blasticidin. For induction of PRL-3 expression, 0.1% tetracycline was added. After 24 hours incubation at 37°C, procyanidins 8 or 9 dissolved in growth medium and growth medium as a control were added to the respective wells in the indicated final concentrations and incubated for another 24 hours. Then, the medium was removed and collected in Eppendorf tubes, centrifuged for 5 min at 500 rpm and the supernatant removed. Then 1 mL of PBS (10%) was added to each well and the cells detached with a cell scraper. […] After thorough mixing the cell suspension was injected into a LSR- Fortessa Bench Top Analyzer (Beckton Dickinson) and the number of living and dead cells counted. […] The number of living cells was divided by the number of total cells counted and given as percentage of cell survival.
(A flow cytometer gives signals particle by particle.)

The target in another series is T1, VHR (Homo sapiens, UniProt P51452).
T1 construct: made in house
T1 sequence (P51452 whole entry, species assumed): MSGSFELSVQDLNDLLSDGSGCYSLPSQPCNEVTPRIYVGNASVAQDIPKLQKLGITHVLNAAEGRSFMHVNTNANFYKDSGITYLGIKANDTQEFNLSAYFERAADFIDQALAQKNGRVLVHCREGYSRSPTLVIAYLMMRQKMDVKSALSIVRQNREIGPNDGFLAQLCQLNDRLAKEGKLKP
Kind of series: DiFMUP assay for PTP1B, TCPTP, VHR. Format: biochemical. The following applies: 12.5 μM, 30 min incubation, 20 μM DiFMUP, 50 nM enzyme. How it is done: (§1) As an extension of our studies we included PTP1B, VHR and TCPTB as examples for phosphotyrosine specific phosphatases in our activity studies, because tea extracts were reported to inhibit PTP1B [43]. For comparison with PRL-3, these proteins were used in the same concentration (50 nM) as PRL-3 and DiFMUP was also used as a substrate in 20 μM concentration. The enzymes were incubated with three different concentrations of procyanidin C2 (9) for 30 min before the measurement.
(§2) Fig 3 Effect of procyanidin C2 (9) on the phosphatase activity of VHR, PTP1B and TCPTP using DiFMUP as a substrate. Proteins were incubated with compound 9 for 30 min., phosphatase activity measurements were performed using 20 μM DiFMUP. Phosphatase activity in the absence of compound 9 was set as 100%. Data represent means ± standard errors of the mean (n = 3).
(§3) DiFMUP assay for PTP1B, TCPTP, VHR: In a final reaction volume of 100 μL the PTPs (50 nM final concentration) were incubated with […] of procyanidin C2 (9) for 30 minutes at 25°C. The buffer conditions were pH 7.2, 4-/2-Hydroxyethyl)-1-piperazineethanesulfonic acid (HEPES) 25 mM, EDTA 2.5 mM, DTT 2.0 mM, NaCl 124.4 mM. After the incubation time 20 μL DiFMUP was added to reach a final concentration of 20 μM. On a Tecan safire2 (Tecan, Salzburg, Austria) plate reader dephosphorylation of the substrate to its fluorescent product was monitored by following the emission at […] for 10 minutes. All measurements were done in triplicates, and the experiments were repeated at least three times. The slopes of the initial phases were obtained by linear regression of the data points. The normalized reaction rates were plotted versus the log of the inhibitor concentrations and the IC50 values were obtained by fitting the curves using the one site competition model of GraphPad Prism (GraphPad Software, Version 5). Due to the high water solubility of 9 DMSO was not required and measurements were done in assay buffer only.

The next series concerns the target T2, TCPTP (Homo sapiens, UniProt P17706).
T2 construct: made in house
T2 sequence (P17706 1-415): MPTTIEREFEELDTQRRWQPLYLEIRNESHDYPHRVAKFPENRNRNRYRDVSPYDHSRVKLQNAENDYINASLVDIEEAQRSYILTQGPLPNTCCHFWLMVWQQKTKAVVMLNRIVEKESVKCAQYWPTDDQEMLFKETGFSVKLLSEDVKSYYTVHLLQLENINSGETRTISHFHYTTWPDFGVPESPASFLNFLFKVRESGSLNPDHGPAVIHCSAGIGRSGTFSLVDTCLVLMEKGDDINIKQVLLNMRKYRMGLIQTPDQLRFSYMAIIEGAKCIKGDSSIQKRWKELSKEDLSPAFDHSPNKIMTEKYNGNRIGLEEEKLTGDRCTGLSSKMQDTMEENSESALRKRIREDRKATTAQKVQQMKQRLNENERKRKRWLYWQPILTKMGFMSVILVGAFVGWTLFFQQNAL
Kind of series: DiFMUP assay for PTP1B, TCPTP, VHR. Type of series: biochemical. The following applies: 12.5 μM, 30 min incubation, 20 μM DiFMUP, 50 nM enzyme. How it is done:
as §1, §2, §3

Regarding `Oc1cc(O)c2c(c1)O[C@H](c1ccc(O)c(O)c1)[C@@H](O)[C@@H]2c1c(O)cc(O)c2c1O[C@H](c1ccc(O)c(O)c1)[C@@H](O)C2` [Procyanidin B3 (8), Procyanidin B3], in the series on Caco-2 cell model, the permeation result is listed as “up to 0.2%”.
Turning to `Oc1cc(O)c2c(c1)O[C@H](c1ccc(O)c(O)c1)[C@@H](O)[C@@H]2c1c(O)cc(O)c2c1O[C@H](c1ccc(O)c(O)c1)[C@@H](O)[C@@H]2c1c(O)cc(O)c2c1O[C@H](c1ccc(O)c(O)c1)[C@@H](O)C2` [Procyanidin C2 (9), Procyanidin C2], in series [1], the viability (usually the share of living cells, or the viability signal relative to a control) at 24 h, 150 µM is approximately 50% and the viability at 24 h, 300 µM was approximately 50%. Also, the “VHR phosphatase activity compared to the control” value on VHR is listed as 75–85%. The “TCPTP phosphatase activity compared to the control” value on TCPTP was 75–85%.
